Source: publication PMC11877530, “Heterologous Expression and Characterization of Estercin A, a Class II Lanthipeptide Derived from Clostridium estertheticum CF016, with Antimicrobial Activity against Clinically Relevant Pathogens” (Journal of Natural Products, 2025)
Converted amounts (≈) assume the structure as drawn.

Key:
Gram-positive strains = assay type: cell-based
[1] = Spot-on-lawn-based lipid II binding (competition) assay; parameters: species or system Lactococcus lactis; conditions: spot-on-lawn on L. lactis MG1363 GM17 agar; estercin A 8 μg spotted adjacent to lipid II (300 μM, 3 μL); nisin positive, daptomycin negative control
Procedure: The binding of the peptides to pure lipid II ([…]) was tested by the spot-on-the- lawn assay. Here, nisin and daptomycin were used for comparison.[51]

L. lactis MG1363 [2] = test: Fluorescence microscopy assay (SYTO-9/PI) for membrane pore formation; assay type: cell-based, Lactococcus lactis; conditions: L. lactis MG1363, peptide at 2-fold MIC, SYTO-9 and 5 μM PI, 15 min room temperature
Procedure: An overnight culture of L. lactis MG1363 was added to the GM17 broth to a final concentration of 1% (v/v) and grown to an OD600 of 0.8. The culture was centrifuged at 6,000 rpm for 5 min and washed three times in the MHB medium. […] Simultaneously, 5 μM PI and SYTO 9 were added to the samples. After incubation at room temperature for 15 min, the samples were centrifuged, and the supernatant was removed. And the cells were washed three times with MHB. After that, the harvest cells were loaded on 1.5% agarose pads and analyzed by a DeltaVision Elite microscope (Applied Precision).

L. lactis MG1363 [3] = test: Time killing assay; assay type: cell-based, Lactococcus lactis; conditions: L. lactis MG1363, 5 × 10^5 CFU/mL, 10-fold the MIC, GM17, 30 °C, CFU counts, triplicate
Procedure: Time-killing assays were conducted according to the previously described protocol.[57] Briefly, an overnight culture of L. lactis MG1363 was diluted 50-fold in GM17 and incubated at 30 °C. The cells were grown for about 3 h to an OD600 of 0.5, and then the cell concentration was adjusted to 5 × 10^5 CFU/mL. […] Untreated cells were used as a control. At predetermined time points, 50 μL was taken from each sample, and undiluted and 10-fold serially diluted suspensions were plated on GM17 agar plates. After the overnight incubation at 30 °C, the colonies on the plates were counted and then calculated as the colony-forming units per milliliter. The experiment was carried out in triplicate.

[4] = Thermal stability (remaining antimicrobial activity); assay type: physicochemical; conditions: 4 h at 95 °C; read-out antimicrobial activity on L. lactis MG1363 agar; three biological replicates
[5] = system: Lactococcus lactis MG1363; conditions: 18 h
[6] = system: Listeria monocytogenes LMG10470; conditions: LMG10470, 18 h
[7] = system: Staphylococcus aureus LMG10147; conditions: LMG10147, 18 h
[8] = system: Staphylococcus aureus LMG15975 (MRSA); conditions: LMG15975, 18 h
[9] = system: Enterococcus faecalis LMG16216 (VRE); conditions: LMG16216, 18 h
[10] = system: Enterococcus faecium LMG16003 (VRE); conditions: LMG16003, 18 h
[11] = system: Bacillus cereus ATCC14579; conditions: ATCC14579, 18 h
[12] = system: Clostridium botulinum CECT551; conditions: Reinforced Clostridium Medium, Coy Anaerobic Chamber, 18 h, 37 °C, three biological replicates
[13] = system: Clostridium perfringens CECT376; conditions: Reinforced Clostridium Medium, Coy Anaerobic Chamber, 18 h, 37 °C, three biological replicates
[14] = system: Clostridium tetani CECT4629; conditions: Reinforced Clostridium Medium, Coy Anaerobic Chamber, 18 h, 37 °C, three biological replicates
[15] = pH stability (remaining antimicrobial activity); conditions: pH 2, 4, 7 or 10 adjusted with HCl or NaOH; read-out antimicrobial activity on L. lactis MG1363 agar; three biological replicates
C. perfringens = conditions: reported value, ref not given; cited from earlier work

| Compound | Antimicrobial activity against selected Gram-positive strains (Gram-positive strains) | Lipid II binding [1] | Membrane pore-forming ability (L. lactis MG1363 [2]) | Rate of killing (L. lactis MG1363 [3]) | Reduction of antimicrobial activity after 95 °C exposure [4] | MIC [5] | MIC [6] | MIC [7] | MIC [8] | MIC [9] | MIC [10] | MIC [11] | MIC [12] | MIC [13] | MIC [14] | pH stability: activity retained after incubation [15] | MIC (C. perfringens) |
| --- | --- | --- | --- | --- | --- | --- | --- | --- | --- | --- | --- | --- | --- | --- | --- | --- | --- |
| C=C1NC(=O)[C@H](C(C)C)NC(=O)C2CSC[C@@H](C(=O)N[C@@H](CCCCN)C(=O)O)NC(=O)[C@H](CSC(C)C3NC(=O)[C@H](Cc4ccccc4)NC(=O)C(NC(=O)[C@@H](NC(=O)[C@@H](NC(=O)[C@@H](NC(=O)CNC(=O)CNC(=O)CN)C(C)C)[C@@H](C)CC)[C@@H](C)O)C(C)SC[C@H](NC(=O)[C@H](CCC(=O)O)NC(=O)[C@H](Cc4c[nH]cn4)NC3=O)C(=O)N[C@@H](Cc3ccc(O)cc3)C(=O)N[C@@H](Cc3ccc(O)cc3)C(=O)N[C@@H](CC(N)=O)C(=O)N2)NC(=O)CNC(=O)CNC(=O)[C@H](Cc2c[nH]c3ccccc23)NC(=O)[C@H](CO)NC(=O)[C@H](C)NC(=O)[C@@H]2CCCN2C1=O (some centres unmarked) [estercin A] | broad spectrum of activity | binds to lipid II | cannot form pores on the membrane of target cells | slower rate of killing | less than 30% | 4 µg/mL (≈ 1.45 µM) | >64 µg/mL | 16 µg/mL (≈ 5.81 µM) | 4 µg/mL (≈ 1.45 µM) | 64 µg/mL (≈ 23.2 µM) | 64 µg/mL (≈ 23.2 µM) | 8 µg/mL (≈ 2.91 µM) | 32 µg/mL (≈ 11.6 µM) | 1 µg/mL (≈ 0.363 µM) | 4 µg/mL (≈ 1.45 µM) | retained most of their activity |  |
| ruminococcin A |  |  |  |  |  |  |  |  |  |  |  |  |  |  |  |  | 75 µg/mL |
